# Test results from patent US9302999B2, “Substituted triazoles as herbicides” (E. I. DU PONT DE NEMOURS AND COMPANY, priority 2012, dated 2016).
# Assays:
# Assay type in all cases: in vivo
# [1] = tested on: crabgrass, large (large crabgrass, Digitaria sanguinalis); experiment: Test A pre-/postemergence: crabgrass, large
# Procedure, shortened: (§1)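 Injury was scored visually on a 0 (no effect) to 100 (complete control) scale versus untreated controls roughly ten days after treatment in the greenhouse. Compounds, formulated in surfactant-containing non-phytotoxic solvent, went on as soil-directed preemergence spray or postemergence to one- to two-leaf plants 2–10 cm tall.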
# [2] = tested on: foxtail, giant (giant foxtail, Setaria faberii); experiment: Test A pre-/postemergence: foxtail, giant
# Procedure, shortened: as §1
# [3] = tested on: wheat (Triticum aestivum); experiment: Test A pre-/postemergence: wheat
# Procedure, shortened: as §1
# corn (Zea mays) = experiment: Test A pre-/postemergence: corn
# Procedure, shortened: as §1
# [4] = tested on: sedge, umbrella (small-flower umbrella sedge Cyperus difformis); experiment: Test B flooded paddy: sedge, umbrella; settings: Flood; 250 g ai/ha; applied to paddy water at 2-leaf stage; visually evaluated after 13 to 15 days
# Procedure, shortened: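 Greenhouse assay lasting 13 to 15 days. Treatment was into water flooding pots 3 cm deep, at the 2-leaf stage, with that level sustained afterwards. Scores compare treated with control plants visually, 100 denoting complete control and 0 no effect; a dash marks no test result.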
# [5] = tested on: ryegrass, Italian (Italian ryegrass, Lolium multiflorum); experiment: Test C pre-/postemergence: ryegrass, Italian
# Procedure, shortened: (§2)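 Visual injury scored 0–100 (100 = complete control) against untreated controls after 13–15 greenhouse days. Surfactant-containing solvent formulations applied either to soil after sowing (loam/sand) or over 1- to 4-leaf plants, 2–18 cm tall.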
# [6] = tested on: johnsongrass (Sorghum halepense); experiment: Test C pre-/postemergence: johnsongrass
# Procedure, shortened: as §2
# [7] = tested on: lambsquarters (Chenopodium album); experiment: Test C pre-/postemergence: lambsquarters
# Procedure, shortened: as §2
# [8] = tested on: velvetleaf (Abutilon theophrasti); experiment: Test C pre-/postemergence: velvetleaf
# Procedure, shortened: as §2
# [9] = Postemergence, 125 g ai/ha, 0 to 100 scale, 0 is no effect, 100 is complete control
# [10] = Postemergence, 500 g ai/ha, 0 to 100 scale, 0 is no effect, 100 is complete control
# [11] = Preemergence, 125 g ai/ha, 0 to 100 scale where 0 is no effect and 100 is complete control
# [12] = Preemergence, 500 g ai/ha, 0 to 100 scale (0 no effect, 100 complete control)
# [13] = Postemergence, 31 g ai/ha, scale 0 to 100 (0 no effect, 100 complete control)
# [14] = Postemergence, 62 g ai/ha, scale 0 to 100 (0 no effect, 100 complete control)
# [15] = Postemergence, 125 g ai/ha, scale 0 to 100, 0 no effect, 100 complete control
# [16] = Postemergence, 250 g ai/ha, scale 0 to 100 (0 no effect, 100 complete control)
# [17] = Preemergence, 31 g ai/ha, scale 0 (no effect) to 100 (complete control)
# [18] = Preemergence, 62 g ai/ha, scale of 0 to 100, 0 is no effect, 100 is complete control
# [19] = Preemergence, 125 g ai/ha, scale 0 to 100, 0 no effect, 100 complete control
# [20] = Preemergence, 250 g ai/ha, scale 0 to 100, 0 no effect, 100 complete control
# [21] = Postemergence, 500 g ai/ha, visual rating on 0 to 100 scale (0 no effect, 100 complete control), approximately ten days
# [22] = Postemergence, 250 g ai/ha, scale 0 to 100
smiles,measurement,setting,value
CCc1nn(-c2ccc(C(F)(F)F)cc2)nc1Oc1ccnc(C(F)(F)F)c1 [Compound 169],"Plant response rating, Crabgrass, Large",[1]; [9],90
same,"Crabgrass, Large plant response rating",[1]; [10],90
same,"Plant response rating, Crabgrass, Large",[1]; [11],100
same,"Plant response rating, Crabgrass, Large",[1]; [12],100
same,"Plant response rating, Foxtail, Giant",[2]; [9],80
same,"Foxtail, Giant plant response rating",[2]; [10],90
same,"Plant response rating, Foxtail, Giant",[2]; [11],100
same,"Plant response rating, Foxtail, Giant",[2]; [12],100
same,"Plant response rating, Wheat",[3]; [9],30
same,Wheat plant response rating,[3]; [10],40
same,"Plant response rating, Wheat",[3]; [11],20
same,"Plant response rating, Wheat",[3]; [12],50
same,"Plant response rating, Corn",corn (Zea mays); [9],10
same,Corn plant response rating,corn (Zea mays); [10],50
same,"Plant response rating, Corn",corn (Zea mays); [11],20
same,"Plant response rating, Corn",corn (Zea mays); [12],20
same,"Plant response rating, Sedge, Umbrella (0 to 100 scale, 0 is no effect, 100 is complete control)",[4],85
same,"Plant response rating, Ryegrass, Italian",[5]; [13],10
same,"Plant response rating, Ryegrass, Italian",[5]; [14],10
same,"Plant response rating, Ryegrass, Italian",[5]; [15],25
same,"Plant response rating, Ryegrass, Italian",[5]; [16],40
same,"Plant response rating, Ryegrass, Italian",[5]; [17],85
same,"Plant response rating, Ryegrass, Italian",[5]; [18],90
same,"Plant response rating, Ryegrass, Italian",[5]; [19],90
same,"Plant response rating, Ryegrass, Italian",[5]; [20],95
same,"Plant response rating, Johnsongrass",[6]; [13],15
same,"Plant response rating, Johnsongrass",[6]; [14],30
same,"Plant response rating, Johnsongrass",[6]; [15],35
same,"Plant response rating, Johnsongrass",[6]; [16],50
same,"Plant response rating, Johnsongrass",[6]; [17],20
same,"Plant response rating, Johnsongrass",[6]; [18],75
same,"Plant response rating, Johnsongrass",[6]; [19],95
same,"Plant response rating, Johnsongrass",[6]; [20],98
same,"Plant response rating, Lambsquarters",[7]; [13],90
same,"Plant response rating, Lambsquarters",[7]; [14],90
same,"Plant response rating, Lambsquarters",[7]; [15],98
same,"Plant response rating, Lambsquarters",[7]; [16],98
same,"Plant response rating, Lambsquarters",[7]; [17],90
same,"Plant response rating, Lambsquarters",[7]; [18],90
same,"Plant response rating, Lambsquarters",[7]; [19],90
same,"Plant response rating, Lambsquarters",[7]; [20],90
same,"Plant response rating, Velvetleaf",[8]; [13],50
same,"Plant response rating, Velvetleaf",[8]; [14],65
same,"Plant response rating, Velvetleaf",[8]; [15],75
same,"Plant response rating, Velvetleaf",[8]; [16],80
same,"Plant response rating, Velvetleaf",[8]; [17],50
same,"Plant response rating, Velvetleaf",[8]; [18],75
same,"Plant response rating, Velvetleaf",[8]; [19],75
same,"Plant response rating, Velvetleaf",[8]; [20],100
Cc1nn(-c2ccnc(Cl)c2)nc1Cc1ccnc(C(F)(F)F)c1 [Compound 141],"Crabgrass, Large plant response rating",[1]; [9],90
same,"Crabgrass, Large plant response rating",[1]; [21],90
same,"Plant response rating, Crabgrass, Large",[1]; [11],100
same,"Plant response rating, Crabgrass, Large",[1]; [12],100
same,"Foxtail, Giant plant response rating",[2]; [9],90
same,"Foxtail, Giant plant response rating",[2]; [21],90
same,"Plant response rating, Foxtail, Giant",[2]; [11],100
same,"Plant response rating, Foxtail, Giant",[2]; [12],100
same,"Plant response rating, Wheat",[3]; [9],20
same,Wheat plant response rating,[3]; [21],50
same,"Plant response rating, Wheat",[3]; [11],0
same,"Plant response rating, Wheat",[3]; [12],20
same,Corn plant response rating,corn (Zea mays); [9],30
same,Corn plant response rating,corn (Zea mays); [21],50
same,"Plant response rating, Corn",corn (Zea mays); [11],0
same,"Plant response rating, Corn",corn (Zea mays); [12],30
same,"Plant response rating, Sedge, Umbrella (0 to 100 scale, 0 is no effect, 100 is complete control)",[4],85
same,"Plant response rating, Ryegrass, Italian",[5]; [13],15
same,"Plant response rating, Ryegrass, Italian",[5]; [14],30
same,"Plant response rating, Ryegrass, Italian",[5]; [15],50
same,"Plant response rating, Ryegrass, Italian",[5]; [22],70
same,"Plant response rating, Johnsongrass",[6]; [13],10
same,"Plant response rating, Johnsongrass",[6]; [14],10
same,"Plant response rating, Johnsongrass",[6]; [15],15
same,"Plant response rating, Johnsongrass",[6]; [22],15
same,"Plant response rating, Lambsquarters",[7]; [13],98
same,"Plant response rating, Lambsquarters",[7]; [14],98
same,"Plant response rating, Lambsquarters",[7]; [15],98
same,"Plant response rating, Lambsquarters",[7]; [22],98
same,"Plant response rating, Velvetleaf",[8]; [13],40
same,"Plant response rating, Velvetleaf",[8]; [14],55
same,"Plant response rating, Velvetleaf",[8]; [15],60
same,"Plant response rating, Velvetleaf",[8]; [22],60
